“Also recorded” adds a separate entry of the source.
Tests used:
[1] = system: LPS-stimulated human monocytes; assay: Human monocyte cytokine secretion assay (LPS); format: cell-based; settings: range over the three cytokines and both compounds, read-out: potencies for reducing secretion of IL-1β, TNF-α and IL-9
Procedure: Peripheral blood from healthy human volunteers was collected and the monocytes isolated via Ficoll-paque density centrifugation. […] The cells were allowed to pre-incubate with test compound at the indicated concentration for 30 minutes (37° C., 5% CO2, humidified air); after which the supernatant was removed and media containing compound and 1 ng/mL LPS was added. Cells were allowed to incubate with compounds and LPS for 4 hours at 37° C. after which the supernatant was removed and stored at −80° C. Cytokine concentrations in the supernatant were determined using commercially available Bio-Rad Bio-plex™ kits according the manufacturer's instructions.

[2] = molecular target: T1, ERK2 (Homo sapiens, UniProt P28482); assay: Kinase panel screen (KinaseProfiler), ERK2; format: biochemical; settings: 10 μM ATP
T1 construct: purchased Upstate, Millipore Bioscience Division (KinaseProfiler service)
Procedure: Compounds of Formulae I and II were examined for activity against a selected panel of kinases using the KinaseProfiler™ enzyme profiling services (Upstate, Millipore Bioscience Division). Percent kinase activity at 10 μM and 1 μM test compound and 10 μM ATP was determined against 40 wild-type recombinant human kinases according to Upstate's standard protocol: ASK1, BTK, CSK, c-RAF, GCK, GSK3β, IKKα, IKKβ, IRAK1, IRAK4, JNK1α1, JNK2α2, JNK3, ERK1, ERK2, MAPKAP-K2, MAPKAP-K3, MEK1, MKK4, MKK6, MKK7β, Mnk2, MSK1, PAK3, PDK1, PRAK, ROCK1, Rsk2, SAPK2a, SAPK2b, SAPK3, SAPK4, SRPK1, SRPK2, Syk, TAK1, TBK1, PI3-Kβ, PI3-Kγ, PI3-Kδ.

[3] = system: LPS-challenged mice; assay: LPS-induced neutrophilia and cytokine production assay; format: in vivo, mouse; settings: for IL-1β levels in BALF: intratracheal administration, LPS-challenged mice
Procedure: This assay is an in vivo assay of neutrophil accumulation and cytokine production that can be used to evaluate the activity of Rho Kinase inhibitor compounds of Formula I or II as anti-inflammatory agents in a whole animal model.
Male BALB/c mice, approximately 19 to 21 grams, were ordered from Charles River Laboratories (Raleigh, N.C.). All animals were challenged with aerosolized LPS (10 μg/ml) for 25 minutes on study day 0. LPS aerosol was generated using an Aerogen Aeroneb nebulizer and controller providing a flow of 400 μl/min and a particle size of 2-4 μm MMAD. Rolipram was administered i.p at 20 mg/kg. […] Four hours following LPS challenge, BALF was collected using a total of 3 ml of 0.9% sodium chloride containing 10% fetal calf serum. Total cell counts were determined using the Coulter Counter. For differential evaluations, BALF was centrifuged and cytospin slides prepared and stained with Hema3 stain. Manual leukocyte counts were then completed on 200 cells. The final concentration of individual leukocyte cell types per ml of BALF was determined by multiplication of the relative percentage of individual leukocytes with the total amount of cells/ml of BALF fluid. The concentration of IL-1β in the BALF samples was determined using commercially available Bio-plex kits (Bio-Rad). The analysis of cytokine levels was measured using the Bio-Plex 200 (Bio-Rad) system according to the manufacturer's instructions.

[4] = system: ova-sensitized, ova-challenged mice; assay: Mouse ovalbumin sensitization model, anti-inflammatory dosing: BALF eosinophils and cytokines; format: in vivo; settings: for Airway eosinophil infiltration (eosinophils per ml of BALF): dosed orally to day 31, anti-inflammatory dosing paradigm
Procedure: Male BALB/c mice were ordered from Charles River Laboratories (Raleigh, N.C.). The animals were approximately 19 to 21 grams at time of receipt. Upon arrival, the animals were randomized into groups of five males per cage and assigned to a dosing group. Animals were quarantined for 7 days under test conditions. They were observed daily for general health status and ability to adapt to the water bottles. Animals were sensitized on day 0 and 14 of study by an intraperitoneal injection with 20 μg of ovalbumin (ova) and 2.0 mg aluminum hydroxide (alum) which initiates the development of a specific T-helper (Th) cells type 2 resulting in asthmatic animals (denoted as Ova in the figures). One group of animals received an injection of saline to use as control animals (denoted as normal in the figures). […] Aerosol challenge consists of using an Aerogen Aeroneb nebulizer and controller with a particle size of 4-6 μm mass median aerodynamic diameter (MMAD) with a distribution of 400 μl per minute. This aerosol challenge is necessary to target the Th2-driven allergic inflammation in the lower airways.
The anti-inflammatory dosing paradigm (FIG. 1) was utilized to evaluate the anti-inflammatory effects of experimental compounds. […] On day 32 of the experiment, after measurement of airway hyperreactivity, BALF was collected and all animals were anesthetized, bled and euthanized.
Bronchoalveolar lavage fluid (BALF) was collected by infusing 3.0 ml of saline with 10% fetal calf serum into the lungs via the trachea and then withdrawing the fluid. The total amount of cells/ml of BALF fluid was determined via manual cell count on hemocytometer. The BALF was centrifuged, supernatant removed and analyzed for cytokine concentrations as described below, and cell pellet reconstituted in 500 μL of fluid. Cytospin slides were prepared from the cell pellet using 100 μL of fluid and spinning samples for 5 minutes at 5000 rpms in a cytospin centrifuge. Following Hema3 stain, relative percentages of individual leukocytes were determined on a 200 cell count for each sample. The final concentration of individual leukocyte cell types per ml of BALF was determined by multiplication of the relative percentage of individual leukocytes with the total amount of cells/ml of BALF fluid.
The concentrations of cytokines in the BALF samples were determined using commercially available Bio-plex kits (Bio-Rad) for the detection of mouse IL-5, IL-13, and Eotaxin. The analysis of cytokine levels was measured using the Bio-Plex 200 (Bio-Rad) system according to the manufacturer's instructions.

[5] = system: murine eosinophils; assay: Murine eosinophil chemotaxis (eotaxin); format: cell-based, mouse; settings: 10 nM eotaxin challenge
Procedure: These assays are in vitro assays of eosinophil chemotaxis that can be used to evaluate the ability of Rho Kinase inhibitor compounds of Formula I or II to inhibit the migration of eosinophils, an immunomodulatory cell involved in inflammation. Compounds with activity in this assay can be utilized to treat disease associated with an inflammatory response. Mouse Eosinophil Isolation: Bronchoalveolar lavage was collected from ovalbumin sensitized and challenged mice in a volume of 2.5 mL lavage buffer. The lavage buffer was 0.9% saline with 10% fetal bovine serum. The pooled lavages were maintained on ice until use. […] In Vitro Chemotaxis: […]

[6] = system: human eosinophils; assay: Human eosinophil chemotaxis (eotaxin); format: cell-based; settings: 1 nM eotaxin challenge
Text: These assays are in vitro assays of eosinophil chemotaxis that can be used to evaluate the ability of Rho Kinase inhibitor compounds of Formula I or II to inhibit the migration of eosinophils, an immunomodulatory cell involved in inflammation. Compounds with activity in this assay can be utilized to treat disease associated with an inflammatory response. Human Eosinophil Isolation: Peripheral blood from healthy human volunteers was collected and the PMNs separated via Ficoll-paque density centrifugation followed by hypotonic lysis of the red blood cells. Subsequently, the human eosinophils were isolated from the cell suspension via StemCell Technologies Human Eosinophil Enrichment kit (Cat. No 19256) according to the manufacturer's recommendations. Briefly, unwanted cells were specifically labeled with dextran-coated magnetic nanoparticles using bispecific Tetrameric Antibody Complexes (TAC) directed against cell surface antigens on human blood cells: […] The unwanted cells are then separated from the unlabelled eosinophils using the EasySep® magnetic isolation procedure. In Vitro Chemotaxis: […]

[7] = system: ova-sensitized, ova-challenged mice; assay: Prevention of airway hyperreactivity (Penh, methacholine) in ovalbumin-sensitized mice; format: in vivo, mouse; settings: for airway hyperreactivity to metacholine: oral 15 μMol/kg once a day during days 27 to 31, tested Day 32
Text: Airway hyperreactivity is a downstream physiologic effect of inflammation in the mouse ovalbumin sensitization model. The objective of the experiment was to answer whether the decrease in inflammation due to ROCK inhibitor anti-inflammatory dosing results in the prevention of downstream physiological consequences as measured by Penh. […] The anti-inflammatory dosing paradigm consists of dosing the animals once a day starting on day 27 and finishing on either day 30 or 31 (1 hr prior to the aerosolized ovalbumin challenges on days 28 to 30) but not on day 32 when hyperreactivity evaluation occurs. […] Exposure to the methacholine doses consisted of a 3 minute period during which a nebulizer was aerosolizing the methacholine and an additional 3 minute period following the cessation of nebulization. […] Enhanced pause (Penh), a unitless index of airway hyperreactivity, is derived from the expiratory side of the respiratory waveform measured via the plethysmograph and is used as an indirect measure of airway resistance and hyperreactivity. […] Following the methacholine dose response, BALF was collected and all animals were anesthetized, bled and euthanized. […] The Penh value at each of the dose levels of methacholine represents the 6-minute average response. Change from baseline (CFB) in Penh was calculated at each methacholine dose and the area under the curve (AUC) for these CFB values was calculated using the trapezoidal rule. This same approach was applied for each mouse across multiple experiments. […] Data from equal experimental conditions across experiments performed on different days were pooled for statistical analysis and data reporting. […] A random intercept for each experiment was assumed to account for possible similarities of the results obtained from a given experiment (i.e., as a “blocking effect”). […] For FIG. 7, linear AUC values from compound treated mice were reported as a percent of linear AUC values from vehicle-treated ovalbumin-sensitized/ovalbumin-challenged (asthmatic) mice. […]

[8] = Rat oral pharmacokinetics (plasma); format: in vivo; settings: 20-30 μmol/kg, mean n = 3
Procedure: Plasma (EDTA K2 anticoagulant) was collected from male, cannulated, CD Sprague Dawley rats to determine the pharmacokinetics of formulations containing compound inhibitors of Rho kinase. Each animal was dosed orally with a 4 ml/kg solution or suspension of each test compound in 10 mM acetate buffered saline, pH 4.5 at a final concentration range of 20-30 μmol/kg. Blood was collected at 0.25, 0.5, 1, 2, 4, 6, 8, and 24 hours. Plasma samples were assayed for the concentration of the test compound using an on-line, solid phase extraction LC/MS/MS analysis system.
Samples were analyzed on a QSTAR Elite, hybrid quadrupole time-of-flight mass spectrometer (Applied Biosystems, Framingham, Mass.) coupled with a Symbiosis Pharma integrated, on-line SPE-HPLC system (Spark Holland Inc., Plainsboro, N.J.). Analyst QS 2.0 software was used for instrument control, data acquisition and processing. […] Mobile Phase A consisted of 0.1% ammonium hydroxide in water and Mobile Phase B consisted of 0.1% formic acid in acetonitrile. Pharmacokinetic analyses were performed using WinNonlin software version 5.2 (Pharsight Corporation, Mountain View, Calif.).
As determined from the plasma concentration versus time curves, the time to peak and peak exposure are represented by the values Tmax and Cmax, respectively. The AUC values (nM*hr) shown were calculated as the areas under the plasma concentration versus time curves from time zero through the time of the last observable value and represent the total exposure of the compound over the course of the study. Half-life values or the amount of time required for the plasma levels of the compound to decline to half the initial value are represented as t½.

[9] = 15 μmol/kg/oral on days 27 to 31

T1 sequence (P28482 whole entry): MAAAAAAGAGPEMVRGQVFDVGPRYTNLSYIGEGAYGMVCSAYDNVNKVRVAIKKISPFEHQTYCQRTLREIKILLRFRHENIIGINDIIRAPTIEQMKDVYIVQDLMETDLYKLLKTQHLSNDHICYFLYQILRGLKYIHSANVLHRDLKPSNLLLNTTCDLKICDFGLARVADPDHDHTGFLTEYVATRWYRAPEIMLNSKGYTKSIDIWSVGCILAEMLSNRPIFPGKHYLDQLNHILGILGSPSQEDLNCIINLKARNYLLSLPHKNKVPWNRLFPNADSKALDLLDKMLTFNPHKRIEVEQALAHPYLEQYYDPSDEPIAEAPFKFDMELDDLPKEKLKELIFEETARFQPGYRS

NC(=O)Cn1ccc2cc(CN3CC[C@@H](Nc4cccc5cnccc45)C3)ccc21 [Compound 2.059, (R)-2-(5-((3-(isoquinolin-5-ylamino)pyrrolidin-1-yl)methyl)-1H-indol-1-yl)acetamide]
IC50 [1]: 170 to 1000 nM | Percent inhibition ERK2 ([2]; 1 μM test compound): 56% | IL-1β levels in BALF [3]: reduction in IL-1β; also recorded: reduction of IL-1β levels

NC(=O)Cn1ccc2cc(CN3CCC[C@@H](Nc4ccc5[nH]ncc5c4)C3)ccc21 [Compound 1.162, (R)-2-(5-((3-(1H-indazol-5-ylamino)piperidin-1-yl)methyl)-1H-indol-1-yl)acetamide]
activity at 1 µM ([2]; 1 μM test compound, read-out: Percent inhibition ERK2): 89% | activity at 10 µM ([2]; 10 μM test compound, read-out: Percent inhibition ERK2): 60%

OCCn1ccc2cc(CN3CC[C@@H](Nc4cccc5cnccc45)C3)ccc21 [Compound 2.066, (R)-2-(5-((3-(isoquinolin-5-ylamino)pyrrolidin-1-yl)methyl)-1H-indol-1-yl)ethanol]
IC50 [1]: 170 to 1000 nM

CS(=O)(=O)Nc1cccc(CN2CC[C@@H](Nc3cccc4cnccc34)C2)c1 [Compound 2.038, (R)-N-(3-((3-(isoquinolin-5-ylamino)pyrrolidin-1-yl)methyl)phenyl)methanesulfonamide]
concentration of Eotaxin in BALF [4, 9]: reduced levels | concentration of IL-5 in BALF [4, 9]: reduced levels | concentration of IL-13 in BALF [4, 9]: reduced levels | Airway eosinophil infiltration (eosinophils per ml of BALF) [4]: reduced | murine eosinophil chemotactic response [5]: inhibited | human eosinophil chemotactic response [6]: inhibited | airway hyperreactivity to metacholine [7]: prevention of airway hyperreactivity

CS(=O)(=O)Nc1cccc(CN2CCC[C@H](Nc3ccc4[nH]ncc4c3)C2)c1 [Compound 1.091, (S)-N-(3-((3-(1H-indazol-5-ylamino)piperidin-1-yl)methyl)phenyl)methanesulfonamide]
eosinophils in BALF ([4]; dosed i.t. to day 30, anti-inflammatory dosing paradigm): reduction of eosinophils | IL-1β levels in BALF [3]: reduction in IL-1β; also recorded: reduction of IL-1β levels | LPS-induced pulmonary neutrophilia influx ([3]; intratracheal dosing one hour prior to LPS challenge): significant reduction; also recorded: dose-dependent inhibition | AUC (0-last) [8]: BLQ | Cmax [8]: BLQ | Tmax [8]: BLQ | t½ [8]: BLQ | airway hyperreactivity ([7]; intratracheal once a day during days 27 to 30): prevention of airway hyperreactivity

c1cc2cc(CN3CCC[C@@H](Nc4ccc5[nH]ncc5c4)C3)ccc2o1 [Compound 1.131, (R)-N-(1-(benzofuran-5-ylmethyl)piperidin-3-yl)-1H-indazol-5-amine]
Airway eosinophil infiltration (eosinophils per ml of BALF) [4]: reduced | airway hyperreactivity to metacholine [7]: prevention of airway hyperreactivity

Source: US8207195B2, “Method for treating neurological and neuropathic diseases using rho kinase inhibitor compounds” (priority 2008, dated 2012)
